Some test systems named below: KM12; NCI-H226; OVCAR-4; CAKI-1; SF-295; ACHN; RPMI-8226; OVCAR-5; RXF 631; NCI-H23; RXF 393; HOP-92; 786-0; IGROV-1; SN12C; SK-MEL-2; TK-10; MDA-MB-231; MDA-N; PC-3.
Common to all, as to assay: NCI-60 cell line screen, 48 h

The structures appear in SMILES notation.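 Step 1: Grow cells in 96-well plates. Step 2: Expose to compound for 48 hours at 5 concentrations. Step 3: Interpolate endpoints linearly; if unreached, use highest concentration. GI50 is the concentration that inhibits growth by half.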 Active and inactive are the calls of the source. Cut-off read from the data, not from the text of the source: active = GI50 up to about 1.1 µM and inactive = higher. Where only a bound is given, the exact number is not on record here.

8 compounds from ChEMBL document CHEMBL1201862, “PubChem BioAssay data set” (2004) can be followed below.

With `O=C1CCCC[C@H]1[C@H]1CCC[C@@H]([C@H]2CCCCC2=O)C1=O`, the GI50 in the assay with KM12, in the assay with NCI-H226, with OVCAR-4, with CAKI-1, in the assay on SF-295 and in the assay with ACHN was > 100 µM (inactive) throughout. Further, the GI50 in the assay with RPMI-8226, in the assay on OVCAR-5, with RXF 631, with NCI-H23, in the assay with RXF 393 and in the assay on HOP-92 was > 100 µM (inactive) each time. For the same compound, the GI50 in the assay on 786-0, with IGROV-1, in the assay with SN12C, in the assay with SK-MEL-2 and with TK-10 was > 100 µM (inactive) in each case.

As to `COc1cccc2c1C(=O)c1c(O)c3c(c(O)c1C2=O)CC(O)(C(C)=O)CC3OC1CC([N+](C)(C)C)C(O)C(C)O1` (stereo not given), the GI50 in the assay with KM12 is > 100 µM (inactive); with NCI-H226 it was 80.7 µM (inactive); with OVCAR-4, > 100 µM (inactive); in the assay on CAKI-1, > 100 µM (inactive); in the assay on SF-295, > 100 µM (inactive); in the assay on ACHN, > 100 µM (inactive). The GI50 is 22.5 µM (inactive) in the assay on RPMI-8226; > 100 µM (inactive) with OVCAR-5; 31.1 µM (inactive) with RXF 631; 72.9 µM (inactive) with NCI-H23; > 100 µM (inactive) in the assay on RXF 393; > 100 µM (inactive) with HOP-92. The GI50 is > 100 µM (inactive) with 786-0; 42.1 µM (inactive) with IGROV-1; 50.7 µM (inactive) in the assay on SN12C; > 100 µM (inactive) with SK-MEL-2; > 100 µM (inactive) in the assay on TK-10.

Turning to `Nc1nc(CCc2n[nH]c(N)n2)n[nH]1`, the GI50 with KM12, in the assay on NCI-H226, in the assay with OVCAR-4, in the assay on CAKI-1, in the assay on SF-295 and in the assay on ACHN was > 100 µM (inactive) each time. The GI50 in the assay on RPMI-8226, in the assay with OVCAR-5, in the assay on RXF 631, in the assay on NCI-H23, in the assay on RXF 393 and in the assay with HOP-92 was > 100 µM (inactive) each time. Moreover, the GI50 in the assay on 786-0, with IGROV-1, in the assay with SN12C, in the assay on SK-MEL-2 and with TK-10 was > 100 µM (inactive) each time.

For `Cc1ccccc1C1=[N+]([O-])c2ccc(Cl)cc2C1=O`, the GI50 is 14.1 µM (inactive) in the assay with KM12; 14.4 µM (inactive) in the assay on NCI-H226; 14.6 µM (inactive) in the assay on SF-295; 12.9 µM (inactive) with ACHN; 3.31 µM (inactive) in the assay on RPMI-8226; 23.2 µM (inactive) in the assay with OVCAR-5. The GI50 with RXF 631 was 3.72 µM (inactive); in the assay with NCI-H23, 17.7 µM (inactive); in the assay on RXF 393, 20 µM (inactive); with HOP-92 it was 14.8 µM (inactive); with 786-0, 18.9 µM (inactive); with IGROV-1, 15.3 µM (inactive). Besides, the results for the GI50 in the assay with SN12C, in the assay on SK-MEL-2 and with TK-10 were 15.2 µM (inactive), 14.1 µM (inactive) and 20 µM (inactive), respectively.

For the compound `N=C(N)NS(=O)(=O)c1ccc(NCc2c3ccccc3nc3ccccc23)cc1`, the GI50 in the assay on MDA-MB-231 is 23 µM (inactive); with KM12 it was 6.24 µM (inactive); in the assay on NCI-H226, 0.421 µM (active); in the assay on OVCAR-4 it was 39.5 µM (inactive); with CAKI-1, 4.34 µM (inactive); with SF-295 it was 2.45 µM (inactive). The GI50 with MDA-N is 71.1 µM (inactive); in the assay on ACHN it was 1.39 µM (inactive); in the assay on RPMI-8226, 2.82 µM (inactive); in the assay with OVCAR-5, 33.3 µM (inactive); with RXF 631, 4.82 µM (inactive); in the assay with NCI-H23, 1.09 µM (active). For the same compound, the GI50 with RXF 393 is 11.9 µM (inactive); in the assay on HOP-92, 0.24 µM (active); in the assay with 786-0 it was 1.07 µM (active); in the assay with PC-3 it was 16.1 µM (inactive); in the assay with IGROV-1 it was 23.4 µM (inactive); with SN12C it was 0.637 µM (active). Further, the figures for the GI50 in the assay with SK-MEL-2 and in the assay with TK-10 were > 20 µM (inactive) and 64.1 µM (inactive), respectively.

With `CC1=C(C(=O)CC(=O)C(=O)Nc2cccc(Cl)c2C)Sc2ccccc2N1`, the GI50 in the assay on KM12, with NCI-H226, in the assay on OVCAR-4, with CAKI-1, in the assay with SF-295 and in the assay on ACHN was > 100 µM (inactive) throughout. Besides, the GI50 with RPMI-8226, in the assay on OVCAR-5, with RXF 631, with NCI-H23, in the assay on RXF 393 and in the assay on HOP-92 was > 100 µM (inactive) in each case. For the same compound, the GI50 in the assay on 786-0, in the assay on IGROV-1, with SN12C, in the assay on SK-MEL-2 and in the assay with TK-10 was > 100 µM (inactive) in each case.

Regarding `S=c1nc(N2CCCCC2)ss1`, the GI50 with KM12 is 17.2 µM (inactive); in the assay with NCI-H226, 43.9 µM (inactive); in the assay on OVCAR-4 it was 38.2 µM (inactive); in the assay on CAKI-1, 27.7 µM (inactive); in the assay on SF-295, 29 µM (inactive); with ACHN, 27 µM (inactive). For the same compound, the GI50 with RPMI-8226 is 2.75 µM (inactive); in the assay with OVCAR-5, > 100 µM (inactive); in the assay on RXF 631, 29.4 µM (inactive); with NCI-H23 it was 47.5 µM (inactive); with RXF 393, 16.7 µM (inactive); with HOP-92, 17.5 µM (inactive). The GI50 is 20.9 µM (inactive) in the assay on 786-0; 25.1 µM (inactive) in the assay with IGROV-1; 17 µM (inactive) with SN12C; 20 µM (inactive) with SK-MEL-2; 40.6 µM (inactive) in the assay on TK-10.

As for `O=S(=O)(c1ccccc1)N1CCC1c1ccccc1` (stereo not given), the GI50 in the assay on KM12 is > 100 µM (inactive); in the assay with NCI-H226, > 100 µM (inactive); with OVCAR-4, 89.5 µM (inactive); in the assay on SF-295, > 100 µM (inactive); in the assay on ACHN it was > 100 µM (inactive); in the assay with RPMI-8226, 43.2 µM (inactive). Also, the GI50 is > 100 µM (inactive) with RXF 631; > 100 µM (inactive) with NCI-H23; > 100 µM (inactive) in the assay on RXF 393; 26.1 µM (inactive) in the assay on HOP-92; > 100 µM (inactive) in the assay with 786-0; > 100 µM (inactive) in the assay with IGROV-1. Also, the GI50 with SN12C, with SK-MEL-2 and with TK-10 was > 100 µM (inactive) each time.
